# Source: ChEMBL document CHEMBL1201862, “PubChem BioAssay data set” (2004)
# Calls of active or inactive are those of the source.
# Key:
# Nonstructural protein 1 = Nonstructural protein 1 (Influenza A virus, UniProt Q194T2); type: functional, Influenza A virus (A/California/07/2009(H1N1))
# [1] = biological target: T1, High affinity choline transporter 1 (Homo sapiens, UniProt Q9GZV3); assay: CHT inhibitors, dose response, cell-based, 5-point CRC, membrane potential dye (AID 504840); type: functional
# T1 sequence (Q9GZV3 whole entry): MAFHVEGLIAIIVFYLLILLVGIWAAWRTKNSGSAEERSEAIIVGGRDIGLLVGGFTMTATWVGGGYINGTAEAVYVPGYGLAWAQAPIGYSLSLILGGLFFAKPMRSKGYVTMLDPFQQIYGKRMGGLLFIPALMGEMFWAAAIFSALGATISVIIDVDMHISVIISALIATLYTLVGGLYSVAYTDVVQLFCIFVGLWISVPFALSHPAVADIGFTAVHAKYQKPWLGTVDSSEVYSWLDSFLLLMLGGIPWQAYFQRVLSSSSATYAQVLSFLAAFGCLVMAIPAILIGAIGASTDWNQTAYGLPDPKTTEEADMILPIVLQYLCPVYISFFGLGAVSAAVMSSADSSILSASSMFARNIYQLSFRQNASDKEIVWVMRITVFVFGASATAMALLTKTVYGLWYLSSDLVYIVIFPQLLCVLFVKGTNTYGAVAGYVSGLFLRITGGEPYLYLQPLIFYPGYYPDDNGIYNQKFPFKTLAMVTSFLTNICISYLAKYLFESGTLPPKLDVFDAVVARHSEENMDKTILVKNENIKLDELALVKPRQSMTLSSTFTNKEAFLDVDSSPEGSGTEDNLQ
# Fatty acid synthase [2] = biological target: T2, Fatty acid synthase (Homo sapiens, UniProt P49327); assay: FAS thioesterase domain inhibitors, dose response, biochemical, endpoint fluorescence intensity, uHTS hits (AID 624327); type: functional;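 further: fluorescence from hydrolysis of an O-methyl fluorescein acyl ester substrate by the enzyme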
# T2 sequence (P49327 whole entry, the tested form may be a part): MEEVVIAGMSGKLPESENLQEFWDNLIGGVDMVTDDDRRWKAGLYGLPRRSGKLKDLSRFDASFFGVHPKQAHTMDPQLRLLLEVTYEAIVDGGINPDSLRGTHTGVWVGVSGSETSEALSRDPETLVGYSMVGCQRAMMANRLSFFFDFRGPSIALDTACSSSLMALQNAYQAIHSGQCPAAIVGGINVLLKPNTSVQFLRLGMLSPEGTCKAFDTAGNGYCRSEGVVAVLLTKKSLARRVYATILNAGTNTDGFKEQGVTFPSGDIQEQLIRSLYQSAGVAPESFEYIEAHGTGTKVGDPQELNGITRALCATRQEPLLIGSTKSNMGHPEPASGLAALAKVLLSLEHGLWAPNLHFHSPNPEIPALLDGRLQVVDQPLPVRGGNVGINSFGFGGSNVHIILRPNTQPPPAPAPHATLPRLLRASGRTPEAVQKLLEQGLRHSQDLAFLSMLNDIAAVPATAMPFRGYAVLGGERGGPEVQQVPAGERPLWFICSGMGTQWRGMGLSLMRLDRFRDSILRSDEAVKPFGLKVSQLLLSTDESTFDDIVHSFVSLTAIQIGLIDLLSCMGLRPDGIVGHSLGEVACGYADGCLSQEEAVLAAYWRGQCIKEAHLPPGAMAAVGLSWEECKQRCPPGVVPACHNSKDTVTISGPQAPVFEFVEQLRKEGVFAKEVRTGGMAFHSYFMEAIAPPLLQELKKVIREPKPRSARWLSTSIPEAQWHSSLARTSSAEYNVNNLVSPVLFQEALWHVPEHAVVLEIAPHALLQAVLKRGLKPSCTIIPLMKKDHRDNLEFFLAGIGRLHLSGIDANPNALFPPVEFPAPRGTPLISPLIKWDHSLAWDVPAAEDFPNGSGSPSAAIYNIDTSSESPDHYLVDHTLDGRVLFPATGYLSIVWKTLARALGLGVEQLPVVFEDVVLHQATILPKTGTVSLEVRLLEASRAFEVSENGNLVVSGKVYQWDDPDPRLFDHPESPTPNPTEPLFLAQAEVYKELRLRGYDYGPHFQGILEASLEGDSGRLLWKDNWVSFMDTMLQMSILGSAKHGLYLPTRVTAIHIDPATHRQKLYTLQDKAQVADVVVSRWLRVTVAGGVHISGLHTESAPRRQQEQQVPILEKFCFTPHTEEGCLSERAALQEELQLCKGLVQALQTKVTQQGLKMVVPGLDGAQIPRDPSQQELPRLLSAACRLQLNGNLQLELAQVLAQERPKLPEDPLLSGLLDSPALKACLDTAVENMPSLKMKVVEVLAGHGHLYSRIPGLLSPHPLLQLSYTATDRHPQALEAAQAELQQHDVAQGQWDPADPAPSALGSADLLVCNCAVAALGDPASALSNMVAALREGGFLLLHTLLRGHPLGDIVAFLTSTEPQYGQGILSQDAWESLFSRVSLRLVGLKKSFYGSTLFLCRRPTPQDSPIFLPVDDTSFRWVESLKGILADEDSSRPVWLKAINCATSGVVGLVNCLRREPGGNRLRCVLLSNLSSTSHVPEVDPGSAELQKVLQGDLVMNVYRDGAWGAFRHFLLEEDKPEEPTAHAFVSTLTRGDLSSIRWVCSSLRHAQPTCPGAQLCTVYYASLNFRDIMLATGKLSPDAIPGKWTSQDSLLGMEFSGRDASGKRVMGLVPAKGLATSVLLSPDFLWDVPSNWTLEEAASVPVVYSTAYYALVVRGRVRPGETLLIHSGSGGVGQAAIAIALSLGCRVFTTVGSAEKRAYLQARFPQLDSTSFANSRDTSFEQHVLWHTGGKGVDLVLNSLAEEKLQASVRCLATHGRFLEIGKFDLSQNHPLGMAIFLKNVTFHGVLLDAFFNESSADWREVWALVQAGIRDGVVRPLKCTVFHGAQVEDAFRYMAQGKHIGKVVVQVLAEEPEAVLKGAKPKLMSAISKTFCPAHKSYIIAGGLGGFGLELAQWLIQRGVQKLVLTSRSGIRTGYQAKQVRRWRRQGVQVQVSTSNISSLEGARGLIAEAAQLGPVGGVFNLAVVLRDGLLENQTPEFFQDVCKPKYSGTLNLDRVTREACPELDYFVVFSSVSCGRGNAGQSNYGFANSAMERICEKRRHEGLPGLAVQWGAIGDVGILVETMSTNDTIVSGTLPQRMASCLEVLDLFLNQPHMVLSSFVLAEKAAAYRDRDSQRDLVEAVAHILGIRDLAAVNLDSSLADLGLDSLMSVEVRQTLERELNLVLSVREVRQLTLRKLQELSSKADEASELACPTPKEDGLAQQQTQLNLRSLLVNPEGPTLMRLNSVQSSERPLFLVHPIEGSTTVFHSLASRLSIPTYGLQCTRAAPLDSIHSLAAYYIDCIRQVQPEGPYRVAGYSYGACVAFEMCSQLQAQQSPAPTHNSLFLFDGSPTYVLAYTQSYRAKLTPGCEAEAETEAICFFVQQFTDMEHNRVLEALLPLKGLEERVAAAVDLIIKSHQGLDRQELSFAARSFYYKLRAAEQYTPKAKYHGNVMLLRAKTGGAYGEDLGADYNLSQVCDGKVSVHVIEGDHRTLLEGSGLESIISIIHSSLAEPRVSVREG
# Fatty acid synthase [3] = biological target: T2, Fatty acid synthase; assay: FAS thioesterase domain inhibitors, dose response, biochemical, kinetic fluorescence intensity (AID 624326); type: functional;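 further: rate of fluorescence rise from hydrolysis of a fluorogenic O-methyl fluorescein ester substrate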
# [4] = C. albicans growth with fluconazole, confirmation, fluorescence, retest (AID 2467); type: functional, cell-based
# [5] = biological target: T3, Calpain-2 catalytic subunit (Sus scrofa, UniProt P43367); assay: pig calpain II inhibitor potency, dose response, biochemical, fluorogenic peptide substrate (AID 1420); type: functional
# T3 sequence (P43367 whole entry): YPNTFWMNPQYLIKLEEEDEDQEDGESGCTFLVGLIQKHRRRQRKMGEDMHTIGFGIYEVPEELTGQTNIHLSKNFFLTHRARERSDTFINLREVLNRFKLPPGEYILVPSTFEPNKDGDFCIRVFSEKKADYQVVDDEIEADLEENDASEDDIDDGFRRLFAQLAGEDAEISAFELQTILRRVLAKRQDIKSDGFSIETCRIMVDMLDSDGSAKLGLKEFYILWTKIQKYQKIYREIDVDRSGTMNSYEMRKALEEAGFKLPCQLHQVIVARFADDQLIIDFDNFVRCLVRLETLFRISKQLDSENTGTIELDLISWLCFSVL
# [6] = NIH-3T3 fibroblast cytotoxicity, dose response, cytotoxicity control, cell-based, fluorescence, Alamar Blue, secondary assay (AID 2327); type: functional;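 further: NIH-3T3 mouse fibroblasts cultured with fluconazole at 8 µg/mL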
# [7] = biological target: T4, Polyadenylate-binding protein 1 (Homo sapiens, UniProt P11940); assay: PABP1 MLLE–PAM2 binding inhibitor potency, dose response, biochemical, fluorescence polarization, FITC-PAM2 peptide (AID 602259); type: functional; settings: read-out: IC50_Mean
# T4 sequence (P11940 whole entry): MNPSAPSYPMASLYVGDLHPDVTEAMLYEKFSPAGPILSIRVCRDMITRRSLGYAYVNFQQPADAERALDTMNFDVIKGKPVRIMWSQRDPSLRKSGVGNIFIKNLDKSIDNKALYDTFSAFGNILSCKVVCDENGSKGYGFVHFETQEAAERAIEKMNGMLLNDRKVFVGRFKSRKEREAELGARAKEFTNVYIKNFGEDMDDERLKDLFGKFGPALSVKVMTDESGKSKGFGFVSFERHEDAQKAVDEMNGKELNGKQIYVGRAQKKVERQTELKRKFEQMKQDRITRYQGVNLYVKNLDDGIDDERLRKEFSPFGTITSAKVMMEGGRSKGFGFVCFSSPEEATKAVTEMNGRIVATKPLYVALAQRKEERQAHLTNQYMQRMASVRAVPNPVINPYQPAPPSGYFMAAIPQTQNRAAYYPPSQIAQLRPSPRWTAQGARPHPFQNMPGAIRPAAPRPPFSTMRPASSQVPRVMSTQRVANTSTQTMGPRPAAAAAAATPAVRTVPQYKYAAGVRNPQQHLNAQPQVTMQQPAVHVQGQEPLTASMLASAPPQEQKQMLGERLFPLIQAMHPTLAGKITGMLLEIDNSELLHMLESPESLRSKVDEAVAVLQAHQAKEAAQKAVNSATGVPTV
# [8] = biological target: T4, Polyadenylate-binding protein 1; assay: PABP1 MLLE–PAM2 interaction inhibitors, dose response, miRNA deadenylation inhibitor project, biochemical, fluorescence polarization, Cy5-PAM2 peptide, secondary (AID 602260); type: functional; settings: read-out: IC50_Mean
# Protein RecA = biological target: T5, Protein RecA (Mycobacterium tuberculosis, UniProt P9WHJ3); assay: Fluorescence Cell-Free Homogeneous Dose Retest to Identify Inhibitors of RecA-Intein Splicing Activity. [Related pubchem assays (depositor defined):AID2097, AID2223, AID489010, AID492950]; type: functional
# T5 sequence (P9WHJ3 whole entry): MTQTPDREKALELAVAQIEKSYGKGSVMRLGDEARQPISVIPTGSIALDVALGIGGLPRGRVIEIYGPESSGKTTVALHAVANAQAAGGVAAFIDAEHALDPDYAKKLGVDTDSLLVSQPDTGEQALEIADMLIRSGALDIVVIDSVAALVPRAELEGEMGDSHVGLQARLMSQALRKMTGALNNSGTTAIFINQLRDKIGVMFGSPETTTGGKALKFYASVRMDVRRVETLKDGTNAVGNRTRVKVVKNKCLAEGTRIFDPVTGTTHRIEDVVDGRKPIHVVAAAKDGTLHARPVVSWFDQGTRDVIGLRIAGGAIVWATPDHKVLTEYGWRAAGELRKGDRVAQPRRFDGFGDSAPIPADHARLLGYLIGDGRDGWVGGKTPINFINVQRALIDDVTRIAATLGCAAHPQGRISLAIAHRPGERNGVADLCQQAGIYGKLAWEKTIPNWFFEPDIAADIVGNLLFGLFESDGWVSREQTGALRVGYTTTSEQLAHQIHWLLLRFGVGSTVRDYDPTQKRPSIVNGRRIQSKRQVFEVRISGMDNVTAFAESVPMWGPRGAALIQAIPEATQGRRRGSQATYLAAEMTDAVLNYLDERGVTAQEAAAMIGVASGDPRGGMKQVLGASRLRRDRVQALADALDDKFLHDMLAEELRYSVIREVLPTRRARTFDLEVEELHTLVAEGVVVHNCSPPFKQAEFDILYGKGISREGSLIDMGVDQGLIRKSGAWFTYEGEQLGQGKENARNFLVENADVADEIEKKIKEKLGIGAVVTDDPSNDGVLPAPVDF
# [9] = biological target: T6, Replicative DNA helicase DnaB (Mycobacterium tuberculosis, UniProt P9WMR3); assay: DnaB intein splicing inhibitors, dose response, biochemical, cell-free fluorescence (AID 449749); type: functional
# T6 sequence (P9WMR3 whole entry): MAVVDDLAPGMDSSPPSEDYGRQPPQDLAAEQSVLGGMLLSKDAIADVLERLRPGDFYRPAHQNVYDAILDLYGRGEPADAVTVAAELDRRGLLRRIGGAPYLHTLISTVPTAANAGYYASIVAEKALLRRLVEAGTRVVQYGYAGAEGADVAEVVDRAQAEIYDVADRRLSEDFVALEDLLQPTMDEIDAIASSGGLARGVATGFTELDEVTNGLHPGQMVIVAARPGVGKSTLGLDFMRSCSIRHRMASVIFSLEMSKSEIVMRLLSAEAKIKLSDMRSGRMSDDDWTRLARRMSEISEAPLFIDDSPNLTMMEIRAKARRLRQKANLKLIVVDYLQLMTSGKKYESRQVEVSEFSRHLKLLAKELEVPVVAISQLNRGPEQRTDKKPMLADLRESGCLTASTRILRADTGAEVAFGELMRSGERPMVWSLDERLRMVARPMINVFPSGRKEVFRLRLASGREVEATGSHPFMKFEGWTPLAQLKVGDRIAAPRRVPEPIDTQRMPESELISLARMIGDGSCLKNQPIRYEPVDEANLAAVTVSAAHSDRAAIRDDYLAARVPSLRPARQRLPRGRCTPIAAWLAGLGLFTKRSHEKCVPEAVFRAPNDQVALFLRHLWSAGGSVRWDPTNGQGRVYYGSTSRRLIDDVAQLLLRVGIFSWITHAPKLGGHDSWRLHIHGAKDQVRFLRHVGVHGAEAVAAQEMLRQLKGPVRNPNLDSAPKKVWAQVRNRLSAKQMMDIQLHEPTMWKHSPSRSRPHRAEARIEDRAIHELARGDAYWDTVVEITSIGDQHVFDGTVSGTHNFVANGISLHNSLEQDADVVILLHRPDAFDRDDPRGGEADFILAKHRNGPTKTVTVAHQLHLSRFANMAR
# [10] = biological target: T7, RNA-binding protein pos-1 (Caenorhabditis elegans, UniProt G5EF15); assay: inhibitors of POS-1/mex-3 RNA binding, dose response, biochemical, fluorescence polarization (AID 1964);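 further: purified POS-1 fused to maltose binding protein made in E. coli; potency of compounds blocking POS-1 binding to fluorescent RNA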
# T7 sequence (G5EF15 whole entry): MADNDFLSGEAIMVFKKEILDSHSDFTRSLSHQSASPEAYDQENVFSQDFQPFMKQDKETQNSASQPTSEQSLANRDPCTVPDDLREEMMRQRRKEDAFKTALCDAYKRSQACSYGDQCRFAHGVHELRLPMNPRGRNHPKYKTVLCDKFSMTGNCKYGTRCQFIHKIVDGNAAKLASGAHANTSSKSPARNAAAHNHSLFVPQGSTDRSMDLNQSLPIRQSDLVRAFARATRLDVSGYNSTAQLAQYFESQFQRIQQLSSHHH
# [11] = biological target: T8, Zinc finger protein mex-5 (Caenorhabditis elegans, UniProt Q9XUB2); assay: MEX-5/TCR-2 RNA interaction inhibitors, dose response, biochemical, C. elegans, fluorescence polarization (AID 1960)
# T8 sequence (Q9XUB2 whole entry): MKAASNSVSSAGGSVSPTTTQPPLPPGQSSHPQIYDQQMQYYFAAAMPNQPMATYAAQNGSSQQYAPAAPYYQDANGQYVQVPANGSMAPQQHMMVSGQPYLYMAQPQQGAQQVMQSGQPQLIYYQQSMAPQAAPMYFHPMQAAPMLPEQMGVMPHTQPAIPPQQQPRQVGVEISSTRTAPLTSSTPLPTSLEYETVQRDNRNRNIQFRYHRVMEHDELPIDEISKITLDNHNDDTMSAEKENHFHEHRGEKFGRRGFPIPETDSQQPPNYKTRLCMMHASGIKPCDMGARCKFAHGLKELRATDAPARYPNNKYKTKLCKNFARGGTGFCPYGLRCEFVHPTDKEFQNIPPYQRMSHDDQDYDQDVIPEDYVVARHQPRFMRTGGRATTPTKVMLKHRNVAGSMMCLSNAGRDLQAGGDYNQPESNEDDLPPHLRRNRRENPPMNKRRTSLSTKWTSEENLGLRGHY
# [12] = P. falciparum Dd2 growth inhibitors, dose response, SYBR Green, cherry-picked samples (AID 1159567); type: functional, cell-based
# Nonstructural protein 1, sequence (Q194T2 whole entry): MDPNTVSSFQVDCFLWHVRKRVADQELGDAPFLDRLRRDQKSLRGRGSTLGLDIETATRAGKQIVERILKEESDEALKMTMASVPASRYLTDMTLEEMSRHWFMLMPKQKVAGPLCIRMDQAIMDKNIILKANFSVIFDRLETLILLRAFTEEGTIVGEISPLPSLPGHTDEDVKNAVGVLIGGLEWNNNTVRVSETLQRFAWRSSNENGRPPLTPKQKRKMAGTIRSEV
Compound,IC50 (Fatty acid synthase [2]),IC50 (Fatty acid synthase [3]),AC50 [12],other results
COc1ccc(C2CC(=O)Oc3c(C(CCN4CCCCC4)c4ccc(N(C)C)cc4)c(OC)cc(OC)c32)cc1 (stereo unspecified),,,,IC50 (Nonstructural protein 1): 18 µM (active); IC50 [1]: 14.5 µM (active)
O=[N+]([O-])c1ccc(S(=O)(=O)Nc2nnc(C3CCCCC3)s2)cc1,7.87 µM (active),7.54 µM (active),,
CC(C)N1C(=O)S/C(=C\c2ccc(-c3ccc(Cl)c(C(=O)O)c3)o2)C1=O,5.26 µM (active),5.51 µM (active),,
CC(C)(C)NC(=O)NC(=O)COC(=O)Cc1ccc(Cl)cc1Cl,9.97 µM (active),9.75 µM (active),,
O=C1c2ccccc2C(=O)c2c1cccc2N1CCCC1,,,,IC50 (Nonstructural protein 1): 7.3 µM (active); EC50 [4]: > 38 µM (not active); IC50 [5]: 14.6 µM (not active); EC50 [6]: 55.6 µM (active)
Cc1ccc(S(=O)(=O)Nc2nc3ccccc3nc2Nc2cccc(S(=O)(=O)N3CCCC3)c2)cc1,,,,IC50 [7]: > 66 µM (inactive); IC50 [8]: > 66 µM (inactive)
Cn1c(=O)c([N+](=O)[O-])c(N2CCN(Cc3ccc4c(c3)OCO4)CC2)c2ccccc21,2.71 µM (active),4.73 µM (active),,
O=C1OC(c2ccccc2)=NC12CC2c1ccc(Cl)cc1 (stereo unspecified),0.293 µM (active),0.238 µM (active),,
Cc1nc(CCNC(=O)CC2C(=O)NCCN2Cc2ccccc2)sc1C (stereo unspecified),,,,IC50 [7]: > 66 µM (inactive); IC50 [8]: > 66 µM (inactive)
CC(C)(C)OC(=O)NCCCC[C@H](NC(=O)c1[nH]cnc1C(=O)Nc1ccccc1)C(=O)OC(C)(C)C,2.63 µM (active),3.01 µM (active),,
CCC(CC)COC(=O)C1=C(C)NC(=O)NC1c1ccc([N+](=O)[O-])cc1 (stereo unspecified),4.35 µM (active),5.94 µM (active),,
CN1CCN(NC(=O)CN2C(=O)S/C(=C\c3c(Cl)cccc3Cl)C2=O)CC1,,,,IC50 [7]: > 66 µM (inactive); IC50 [8]: > 66 µM (inactive)
CCN(C(=O)COC(=O)c1cc([N+](=O)[O-])ccc1N1CCOCC1)c1ccccc1,1.94 µM (active),1.86 µM (active),,
C[C@H](O)[C@H](O)[C@H]1CNc2nc(N)[nH]c(=O)c2N1,,,,IC50 [7]: > 66 µM (inactive); IC50 [8]: > 66 µM (inactive)
O=C1NC(=O)N2CCSC2(Cc2ccccc2)N1 (stereo unspecified),,,,IC50 [7]: > 66 µM (inactive); IC50 [8]: > 66 µM (inactive)
CCOC(=O)c1cnc(-n2[nH]c(C)c(Cc3ccccc3)c2=O)[nH]c1=O,,,,IC50 (Nonstructural protein 1): 3.4 µM (active); EC50 (Protein RecA): 5.99 µM (active); AC50 [9]: 9.77 µM (active)
O=C(N/N=C\C1C(=O)NC(=S)N(c2ccccc2)C1=O)c1ccc(O)cc1 (stereo unspecified),,,,EC50 [10]: > 300 µM (not active); IC50 (Nonstructural protein 1): 9.86 µM (active); EC50 [11]: 63.7 µM (active)
CN1c2ccc(-c3cccc(F)c3)cc2[C@@H]2[C@@H](CCN2C(=O)C2CC2)[C@@H]1CO,,,16.8 µM (active),
CCC(=O)N1CCC2(CC1)CN(Cc1ccc(Cl)cc1)[C@@H](CO)c1[nH]c3cc(OC)ccc3c12,,,3.79 µM (active),
C[C@H]1CN([C@@H](C)CO)S(=O)(=O)c2ccc(C#Cc3ccncc3)cc2O[C@@H]1CN(C)S(=O)(=O)c1ccc(F)cc1,,,3.9 µM (active),
CCC(=O)N1CCC2(CC1)CN(C(=O)Nc1ccc(F)cc1)[C@@H](CO)c1c2c2ccc(OC)cc2n1C,,,4.37 µM (active),
COc1ccc2c3c(n(C)c2c1)[C@@H](CO)N(S(C)(=O)=O)CC31CCN(C(=O)CN(C)C)CC1,,,4.28 µM (active),
CCCN(C)C[C@@H]1Oc2cc(C#Cc3ccccc3)ccc2S(=O)(=O)N([C@@H](C)CO)C[C@@H]1C,,,4.59 µM (active),
O=C(C1CCCC1)N1CC(=O)N2[C@H](CO)[C@@H](c3ccc(C#CCc4ccccc4)cc3)[C@@H]2C1,,,6.57 µM (active),
CO[C@@H]1CN(C)C(=O)c2ccc(NC(=O)c3nc4ccccc4s3)cc2OC[C@H](C)N(Cc2cccnc2)C[C@@H]1C,,,5 µM (active),
